Laboratory results from patent USRE47302E1 (ONYX THERAPEUTICS INC., priority 2013, dated 2019).
Converted amounts (≈) assume the structure as drawn.

Experiments:
physchem = settings: pH 7, aqueous buffer
[1] = biological target: T1, proteasome subunit β5 (beta5) (Homo sapiens, UniProt P28074); test: Proteasome active-site ELISA (ProCISE), beta5, MOLT-4 lysate; assay type: biochemical; settings: MOLT4 lysate, human, 1 h continuous treatment, 25° C.
T1 construct: Lysate from the human acute lymphoblastic leukemia cell line, MOLT-4; endogenous in cells; host or cells: MOLT-4
How it was run: (§1)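 MOLT-4 cell lysate treated 1 h at 25 °C with compound; probe-bound subunits denatured, pulled down on streptavidin beads and detected with subunit-specific antibodies plus HRP chemiluminescence.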

[2] = biological target: T2, immunoproteasome subunit LMP7 (Homo sapiens, UniProt P28062); test: Proteasome active-site ELISA (ProCISE), LMP7, MOLT-4 lysate; assay type: biochemical; settings: MOLT4 lysate, 1 h continuous treatment, 25° C.
T2 construct: Lysate from the human acute lymphoblastic leukemia cell line, MOLT-4; endogenous in cells; host or cells: MOLT-4
How it was run: as §1

Solubility pH 7 = settings: pH 7, aqueous buffer
[3] = biological target: human 20S immunoproteasome (i20S) (Homo sapiens, UniProt P28062); test: 20S proteasome assay, chymotrypsin-like activity (succinyl-Leu-Leu-Val-Tyr-AMC), i20S; assay type: biochemical; settings: LLVY substrate, 1 h continuous
Description: (§2) Assay buffer consisted of TE buffer [20 mmol/L Tris (pH 8.0), 0.5 mmol/L EDTA] with (20S) or without (cell lysate) 0.03% SDS. Reactions were initiated by enzyme or lysate addition and monitored for AMC product formation at 27jC with a plate-based spectofluorometer (Tecan).

[4] = biological target: human constitutive 20S proteasome (c20S) (Homo sapiens, UniProt P28074); test: 20S proteasome assay, chymotrypsin-like activity (succinyl-Leu-Leu-Val-Tyr-AMC), c20S; assay type: biochemical; settings: LLVY substrate, 1 h continuous
Description: as §2

SMILES	IC50 [1]	IC50 [2]	solubility (Solubility pH 7)	IC50 [3]	IC50 [4]	solubility (physchem)
COc1ccc(C[C@H](NC(=O)[C@H](C)NC(=O)CN2CC3CC(C2)O3)C(=O)N[C@@H](CC2CCCC2)C(=O)[C@@]2(C)CO2)cc1 [Compound C-1229, (2S)-2-((2S)-2-(2-(6-oxa-3-azabicyclo[3.1.1]heptan-3-yl)acetamido)propanamido)-N-((S)-3-cyclopentyl-1-((R)-2-methyloxiran-2-yl)-1-oxopropan-2-yl)-3-(4-methoxyphenyl)propanamide]	–	–	–	–	–	3620 µg/mL (≈ 6200 µM)
C[C@H](NC(=O)CN1CCOCC1)C(=O)N[C@@H](Cc1ccc2occc2c1)C(=O)N[C@@H](CC1CCCC1)C(=O)[C@@]1(C)CO1 [Compound C-1007, (S)-3-(benzofuran-5-yl)-N-((S)-3-cyclopentyl-1-((R)-2-methyloxiran-2-yl)-1-oxopropan-2-yl)-2-((S)-2-(2-morpholinoacetamido)propanamido)propanamide]	2360 nM	314 nM	878 µg/mL (≈ 1510 µM)	106 nM	440 nM	–
C[C@H](NC(=O)CN1CCOCC1)C(=O)N[C@@H](Cc1ccc(S(C)(=O)=O)cc1)C(=O)N[C@@H](CC1CCCC1)C(=O)[C@@]1(C)CO1 [Compound C-1027, (S)-N-((S)-3-cyclopentyl-1-((R)-2-methyloxiran-2-yl)-1-oxopropan-2-yl)-3-(4-(methylsulfonyl)phenyl)-2-((S)-2-(2-morpholinoacetamido)propanamido)propanamide]	1050 nM	165 nM	5750 µg/mL (≈ 9260 µM)	108 nM	775 nM	–
COc1ccc([C@@H](O)[C@H](NC(=O)[C@H](C)NC(=O)CN2CCOCC2)C(=O)N[C@@H](CC2CCCC2)C(=O)[C@@]2(C)CO2)cc1 [Compound C-1022, (2S,3R)-N-((S)-3-Cyclopentyl-1-((R)-2-methyloxiran-2-yl)-1-oxopropan-2-yl)-3-hydroxy-3-(4-methoxyphenyl)-2-((S)-2-(2-morpholinoacetamido)propanamido)propanamide]	1110 nM	85.1 nM	4050 µg/mL (≈ 6880 µM)	115 nM	729 nM	–
COc1ccc(C[C@H](NC(=O)[C@H](C)NC(=O)CC2CCOCC2)C(=O)N[C@@H](CC2CCCC2)C(=O)[C@@]2(C)CO2)cc1 [Compound C-1010, (S)-N-((S)-3-cyclopentyl-1-((R)-2-methyloxiran-2-yl)-1-oxopropan-2-yl)-3-(4-methoxyphenyl)-2-((S)-2-(2-(tetrahydro-2H-pyran-4-yl)acetamido)propanamido)propanamide]	695 nM	99.6 nM	185 µg/mL (≈ 324 µM)	24.4 nM	119 nM	–
COc1ccc(C[C@H](NC(=O)[C@@H](C)NC(=O)C2CCOCC2)C(=O)N[C@@H](CC2CCCC2)C(=O)[C@@]2(C)CO2)cc1 [Compound C-1028, N-((R)-1-(((S)-1-(((S)-3-cyclopentyl-1-((R)-2-methyloxiran-2-yl)-1-oxopropan-2-yl)amino)-3-(4-methoxyphenyl)-1-oxopropan-2-yl)amino)-1-oxopropan-2-yl)tetrahydro-2H-pyran-4-carboxamide]	807 nM	52.6 nM	215 µg/mL (≈ 385 µM)	53.8 nM	1010 nM	–

The next lines start with results.

IC50 [1]	IC50 [2]	solubility (Solubility pH 7)	IC50 [3]	IC50 [4]	SMILES	solubility (physchem)
2550 nM	34 nM	491 µg/mL (≈ 862 µM)	5.3 nM	595 nM	COc1ccc(C[C@H](NC(=O)[C@@H](C)NC(=O)[C@H]2CC[C@H](O)CC2)C(=O)N[C@@H](CC2=CCCC2)C(=O)[C@@]2(C)CO2)cc1 [Compound C-1057, (1r,4R)-N-((R)-1-(((S)-1-(((S)-3-(cyclopent-1-en-1-yl)-1-((R)-2-methyloxiran-2-yl)-1-oxopropan-2-yl)amino)-3-(4-methoxyphenyl)-1-oxopropan-2-yl)amino)-1-oxopropan-2-yl)-4-hydroxycyclohexanecarboxamide]	–
497 nM	11.2 nM	220 µg/mL (≈ 394 µM)	7.93 nM	201 nM	COc1ccc(C[C@H](NC(=O)[C@H](C)NC(=O)CN2CCOCC2)C(=O)N[C@@H](CC2CCCC2)C(=O)[C@H]2CO2)cc1 [Compound C-1030, (S)-N-((S)-3-cyclopentyl-1-((R)-oxiran-2-yl)-1-oxopropan-2-yl)-3-(4-methoxyphenyl)-2-((S)-2-(2-morpholinoacetamido)propanamido)propanamide]	–
4170 nM	208 nM	3270 µg/mL (≈ 5780 µM)	278 nM	2430 nM	COc1ccc(C[C@H](NC(=O)CNC(=O)CN2CCOCC2)C(=O)N[C@@H](Cc2ccccc2)C(=O)[C@@]2(C)CO2)cc1 [Compound C-1153, (S)-3-(4-methoxyphenyl)-N-((S)-1-((R)-2-methyloxiran-2-yl)-1-oxo-3-phenylpropan-2-yl)-2-(2-(2-morpholinoacetamido)acetamido)propanamide]	–
17.4 nM	2.72 nM	298 µg/mL (≈ 523 µM)	4.7 nM	46.8 nM	COc1ccc(C[C@H](NC(=O)[C@@H](C)NC(=O)[C@H]2CC[C@@H](O)CC2)C(=O)N[C@@H](CC2=CCCC2)C(=O)[C@@]2(C)CO2)cc1 [Compound C-1056, (1s,4S)-N-((R)-1-(((S)-1-(((S)-3-(cyclopent-1-en-1-yl)-1-((R)-2-methyloxiran-2-yl)-1-oxopropan-2-yl)amino)-3-(4-methoxyphenyl)-1-oxopropan-2-yl)amino)-1-oxopropan-2-yl)-4-hydroxycyclohexanecarboxamide]	–
150 nM	22.9 nM	1780 µg/mL (≈ 2920 µM)	23 nM	161 nM	COc1ccc(C[C@H](NC(=O)[C@@H](NC(=O)CN2CCOCC2)[C@H](C)O)C(=O)N[C@@H](Cc2ccccc2)C(=O)[C@@]2(C)CO2)cc1 [Compound C-1174]	–
4540 nM	270 nM	648 µg/mL (≈ 1160 µM)	98.9 nM	3770 nM	COc1ccc(C[C@H](NC(=O)[C@@H](C)NC(=O)[C@H]2CCCOC2)C(=O)N[C@@H](CC2CCCC2)C(=O)[C@@]2(C)CO2)cc1 [Compound C-1053, (S)-N-((R)-1-(((S)-1-(((S)-3-cyclopentyl-1-((R)-2-methyloxiran-2-yl)-1-oxopropan-2-yl)amino)-3-(4-methoxyphenyl)-1-oxopropan-2-yl)amino)-1-oxopropan-2-yl)tetrahydro-2H-pyran-3-carboxamide]	–
512 nM	101 nM	706 µg/mL (≈ 1270 µM)	44.5 nM	515 nM	COc1ccc(C[C@H](NC(=O)[C@@H](C)NC(=O)[C@@H]2CCCOC2)C(=O)N[C@@H](CC2CCCC2)C(=O)[C@@]2(C)CO2)cc1 [Compound C-1052, (R)-N-((R)-1-(((S)-1-(((S)-3-cyclopentyl-1-((R)-2-methyloxiran-2-yl)-1-oxopropan-2-yl)amino)-3-(4-methoxyphenyl)-1-oxopropan-2-yl)amino)-1-oxopropan-2-yl)tetrahydro-2H-pyran-3-carboxamide]	–
388 nM	38.4 nM	140 µg/mL (≈ 245 µM)	20.2 nM	232 nM	COc1ccc(C[C@H](NC(=O)[C@@H](C)NC(=O)C2CCOCC2)C(=O)N[C@@H](CC2=CCCC2)C(=O)[C@@]2(C)CO2)cc1O [Compound C-1062, N-((R)-1-(((S)-1-(((S)-3-(cyclopent-1-en-1-yl)-1-((R)-2-methyloxiran-2-yl)-1-oxopropan-2-yl)amino)-3-(3-hydroxy-4-methoxyphenyl)-1-oxopropan-2-yl)amino)-1-oxopropan-2-yl)tetrahydro-2H-pyran-4-carboxamide]	–
